From PubChem BioAssay (NCI)
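Step 1: Grow cells in 96-well plates. Step 2: Expose to compound for 48 hours at 5 concentrations. Step 3: Interpolate endpoints linearly; if unreached, use highest concentration. GI50 marks 50% less growth. TGI: total growth inhibition.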

Columns and labels:
Experiment in all cases: NCI tumour cell line growth inhibition, 48 h
[1] = test system: 786-0 renal
[2] = test system: A498 renal
[3] = test system: A549 NSCLC
[4] = test system: ACHN renal
[5] = test system: BT-549 breast
[6] = test system: CAKI-1 renal
[7] = test system: CCRF-CEM leukemia
[8] = test system: COLO 205 colon
[9] = test system: DU-145 prostate
[10] = test system: EKVX NSCLC
[11] = test system: HCC-2998 colon
[12] = test system: HCT-116 colon
[13] = test system: HCT-15 colon
[14] = test system: HL-60(TB) leukemia
[15] = test system: HOP-62 NSCLC
[16] = test system: HOP-92 NSCLC
[17] = test system: HS 578T breast
[18] = test system: HT29 colon
[19] = test system: IGROV1 ovarian
[20] = test system: K-562 leukemia
[21] = test system: KM12 colon
[22] = test system: LOX IMVI melanoma
[23] = test system: M14 melanoma
[24] = test system: MALME-3M melanoma
[25] = test system: MCF7 breast
[26] = test system: MDA-MB-231 breast
[27] = test system: MDA-MB-435
[28] = test system: MDA-MB-468 breast
[29] = test system: MOLT-4 leukemia
[30] = test system: NCI-H226 lung
[31] = test system: NCI-H23 lung
[32] = test system: NCI-H460 lung
[33] = test system: NCI-H522 lung
[34] = test system: OVCAR-3 ovarian
[35] = test system: OVCAR-4 ovarian
[36] = test system: OVCAR-5 ovarian
[37] = test system: OVCAR-8 ovarian
[38] = test system: PC-3 prostate
[39] = test system: RPMI-8226 leukemia
[40] = test system: RXF 393 renal
[41] = test system: SF-268 CNS
[42] = test system: SF-295 CNS
[43] = test system: SF-539 CNS
[44] = test system: SK-MEL-2 melanoma
[45] = test system: SK-MEL-28 melanoma
[46] = test system: SK-MEL-5 melanoma
[47] = test system: SK-OV-3 ovarian
[48] = test system: SN12C renal
[49] = test system: SNB-19 CNS
[50] = test system: SNB-75 CNS
[51] = test system: SR leukemia
[52] = test system: SW-620 colon
[53] = test system: T-47D breast
[54] = test system: TK-10 renal
[55] = test system: U251 CNS
[56] = test system: UACC-257 melanoma
[57] = test system: UACC-62 melanoma
[58] = test system: UO-31 renal

CNC(=O)c1cccc(NC(=O)c2ccc3c(c2)nnn3/C(C#N)=C/c2ccccn2)c1
GI50 [1]: 2.38 µM | TGI [1]: 7.7 µM | GI50 [2]: 18.6 µM | TGI [2]: 41.1 µM | GI50 [3]: 22.1 µM | TGI [3]: 60 µM | GI50 [4]: 13.7 µM | TGI [4]: 26.8 µM | GI50 [5]: 1.95 µM | TGI [5]: 5.59 µM | GI50 [6]: 6.37 µM | TGI [6]: 19.9 µM | GI50 [7]: 3.71 µM | TGI [7]: 38.4 µM | GI50 [8]: 2.63 µM | TGI [8]: 6.7 µM | GI50 [9]: 15.3 µM | TGI [9]: 29 µM | GI50 [10]: 15.8 µM | TGI [10]: 30.2 µM | GI50 [11]: 16.1 µM | TGI [11]: 29.8 µM | GI50 [12]: 2.74 µM | TGI [12]: 10.1 µM | GI50 [13]: 10.8 µM | TGI [13]: 23.6 µM | GI50 [14]: 3.21 µM | TGI [14]: 24.2 µM | GI50 [15]: 17.9 µM | TGI [15]: 41.2 µM | GI50 [16]: 11.6 µM | TGI [16]: 27.3 µM | GI50 [17]: 12.6 µM | TGI [17]: 38.1 µM | GI50 [18]: 10.5 µM | TGI [18]: 31.1 µM | GI50 [19]: 13.6 µM | TGI [19]: 27.5 µM | GI50 [20]: 3.11 µM | TGI [20]: > 100 µM | GI50 [21]: 16.5 µM | TGI [21]: 46.9 µM | GI50 [22]: 1.86 µM | TGI [22]: 3.9 µM | GI50 [23]: 10.9 µM | TGI [23]: 23 µM | GI50 [24]: 1.85 µM | TGI [24]: 3.94 µM | GI50 [25]: 3.46 µM | TGI [25]: 15.6 µM | GI50 [26]: 11.8 µM | TGI [26]: 24.7 µM | GI50 [27]: 7.69 µM | TGI [27]: 21.4 µM | GI50 [28]: 1.71 µM | TGI [28]: 3.43 µM | GI50 [29]: 3.51 µM | TGI [29]: 39 µM | GI50 [30]: 14.3 µM | TGI [30]: 29.2 µM | GI50 [31]: 13.4 µM | TGI [31]: 26.8 µM | GI50 [32]: 15.7 µM | TGI [32]: 34.1 µM | GI50 [33]: 1.61 µM | TGI [33]: 3.14 µM | GI50 [34]: 3.11 µM | TGI [34]: 10.2 µM | GI50 [35]: 15.7 µM | TGI [35]: 29.4 µM | GI50 [36]: 15.7 µM | TGI [36]: 29.3 µM | GI50 [37]: 15.3 µM | TGI [37]: 29.8 µM | GI50 [38]: 19.2 µM | TGI [38]: 48 µM | GI50 [39]: 10.4 µM | TGI [39]: 52.1 µM | GI50 [40]: 4.88 µM | TGI [40]: 16.9 µM | GI50 [41]: 17.9 µM | TGI [41]: 41.4 µM | GI50 [42]: 19.7 µM | TGI [42]: 39.5 µM | GI50 [43]: 13.8 µM | TGI [43]: 26.9 µM | GI50 [44]: 12.8 µM | TGI [44]: 25.9 µM | GI50 [45]: 1.95 µM | TGI [45]: 4.33 µM | GI50 [46]: 14.1 µM | TGI [46]: 27.4 µM | GI50 [47]: 30.2 µM | TGI [47]: > 100 µM | GI50 [48]: 16.4 µM | TGI [48]: 30.3 µM | GI50 [49]: 18.6 µM | TGI [49]: 38.9 µM | GI50 [50]: 17.7 µM | TGI [50]: 92.4 µM | GI50 [51]: 2.76 µM | TGI [51]: > 100 µM | GI50 [52]: 1.87 µM | TGI [52]: 3.75 µM | GI50 [53]: 2.31 µM | TGI [53]: 7.38 µM | GI50 [54]: 14 µM | TGI [54]: 27.6 µM | GI50 [55]: 15.3 µM | TGI [55]: 32.2 µM | GI50 [56]: 8.21 µM | TGI [56]: 21.2 µM | GI50 [57]: 14 µM | TGI [57]: 27.7 µM | GI50 [58]: 12.7 µM | TGI [58]: 25.3 µM
